From US20090082353A1, “TREATMENT OF EPILEPSY WITH NON-IMIDAZOLE ALKYLAMINES HISTAMINE H3-RECEPTOR LIGANDS” (priority 2005, published 2009)

Legend:
convulsions = conditions: rodents; cited from earlier work
[1] = tested on: electrically-driven convulsions; conditions: in vivo; cited from earlier work
seizure susceptibility = conditions: mice; cited from earlier work
[2] = tested on: pentetrazole-induced convulsions; conditions: mice and rats; cited from earlier work
[3] = tested on: amygdaloid-kindled seizures; conditions: rats; cited from earlier work
H3-receptor = conditions: cited from earlier work
[4] = tested on: pharmacoresistant epilepsy; experiment: clinical study in pharmacoresistant epileptic patients; format: in vivo, human; conditions: 20 to 40 mg/day during 3 months
Method: A clinical study has confirmed the efficiency of the compounds of the invention in treating pharmacoresistant epilepsy. Epileptic patients were enrolled. Those patients suffered from highly frequent seizures (generally more than 10 seizures monthly) despite their treatment consisting in one or more usual anti-epileptic drug of various classes (barbiturics, depakine, lamotrigine, gabapenine, benzodiazepines . . . ). Patients were administered with 3-(4-Chlorophenyl)propyl 3-piperidinopropyl ether at doses comprised between 20 and 40 mg/day during 3 months. Seizures frequency was reduced by 50% in a significant number of patients.

[5] = tested on: clonic convulsions induced by pentetrazole; experiment: clonic convulsions induced by pentetrazole in mice; format: in vivo
Method: The inventors also assessed the effects of one of the non-imidazole compound they described in WO 00/06254, BF2-649 (3-(4-chlorophenyl)propyl 3-piperidinopropyl ether) at 10 mg/kg on clonic convulsions induced by pentetrazole in mice.

[6] = tested on: high-frequency cortical rhythms (EEG); experiment: EEG rhythms in healthy human volunteers; format: in vivo
Description: In healthy human volunteers, orally-administered 3-(4-Chlorophenyl)propyl 3-piperidinopropyl ether dose-dependently elicited electroencephalographic changes (i.e. enhanced high-frequency cortical rhythms at the expense of low-frequency rhythms) which are regarded as predictory of facilitated thalamo-cortical activation and inhibition of pathological synchronisation underlying spike-wave discharges in epileptic states (Avanzini et al, Clinical Neurophysiol, 2000, 111, Suppl 2, S19). Groups of 6 male subjects received 40-120 mg 3-(4-Chlorophenyl)propyl 3-piperidinopropyl ether orally.

[7] = tested on: photo paroxymal response (PPR); experiment: photosensitivity model, intermittent photic stimulation (IPS) in epileptic patients; format: in vivo, human
Description: Photosensitivity, defined as a generalized epileptiform reaction on intermittent photic stimulation (IPS) outlasting the stimulus train is found in about 5% of epileptic patients (Kasteleijn-Nolst trenité DGA. Acta Neurol Scand, 1989; 80:1-149). Unlike most other epilepsies, photosensitive epilepsy is a reflex epilepsy and epileptiform discharges can be evoked at any time by IPS in the laboratory. By determination of both upper and lower sensitivity limits (frequencies per flash) a so-called photosensitivity range can be determined. This range is related to liability of seizures in daily life of the patient. This photosensitivity range is relatively stable within a patient and can be diminished of abolished by antiepileptic medication. […] Furthermore, it is possible to explore the time, onset and duration of the effect, a dose-response relationship and to document serum concentration-time profiles of the study drug. […] The single blind design was chosen in order to reduce comparison bias of IPS response observed after treatment with 3-(4-Chlorophenyl)propyl 3-piperidinopropyl ether administration at Day 2 with placebo evaluation at Day 1. Five single doses will be studied (10 to 90 mg). the margin of safety was determined from the nonclinical and clinical experiments with 3-(4-Chlorophenyl)propyl 3-piperidinopropyl ether.

[8] = tested on: GAERS (Genetic Absence Epilepsy, Rat from Strasbourg); experiment: GAERS rat genetic model of absence epilepsy, EEG spike-and-wave discharges; format: in vivo
Method: In a rat genetic model of human epilepsy (particularly of “absence” epilepsy in children and adults), the GAERS (Genetic Absence Epilepsy, Rat from Strasbourg; Vergnes et al, Epilepsy Res. 1989; 4, 8-13), 3-(4-Chlorophenyl)propyl 3-piperidinopropyl ether diminished by up to 77% the number and duration of spike-and-wave discharges, i.e. characteristic EEG changes of the disorder, at a dose of 20 mg/kg. In this strain of Wistar rats with spontaneous generalized non convulsive seizures (absence seizures), seizures are characterized by bilateral and synchronous spike-and-wave discharges (7-9 Hz) on EEG, concomitant with behavioural arrests. These discharges generally last about 20 sec and occur spontaneously every minute when the animals are in a state of quiet wakefulness. Pharmacological reactivity of this model is similar to human absence-epilepsy (e.g., valproate and ethosuccimide are protective). After a recovery period, implanted rats (cortical and hippocampal EEG electrodes) were recorded over a 20 min reference period. Then, 3-(4-Chlorophenyl)propyl 3-piperidinopropyl ether (5 or 20 mg/kg, i.p.) or saline were administered (n=8 per group) and the EEG recording was continued for 60 min. Rats received the alternate treatment one week later. Cumulated duration of absence-seizures was measured by 20 min periods during the two sessions.

[9] = tested on: intrahippocampal kainate-induced temporal lobe seizures; experiment: intrahippocampal kainate-induced temporal lobe seizures in mice, EEG; format: in vivo
Method: Unilateral injection of kainic acid (1 nmol in 50 nl) into the dorsal hippocampus in mice induces a non-convulsive status that results in spontaneous recurrent focal seizures after 2-3 weeks. Seizures (5 to 20 times per hour in quiet mice) are characterized by a behavioural arrest and/or stereotypes, concomitant with spike and poly-spike discharges recorded in the injected hippocampus. […] This model reproduces the behavioural, EEG, pharmacological and histological characteristics of mesial temporal lobe epilepsy, a form of epilepsy which is often drug-resistant in humans. After a recovery period, implanted mice (for EEG recordings) were injected with kainic acid. They were EEG recorded at least 3 weeks after injection for selection of animals with consistent hippocampal seizure. Then, after a 20 min reference recording period, selected mice received either 3-(4-Chlorophenyl)propyl 3-piperidinopropyl ether (10 or 20 mg/kg i.p.) or saline and the recording was continued for 60 min. Treatments were given in a counter balanced order (after a one week washout period between two sessions).

[10] = tested on: intrahippocampal kainate-induced temporal lobe seizures; conditions: mice; cited from earlier work
[11] = tested on: GAERS (Genetic Absence Epilepsy, Rat from Strasbourg); conditions: in vivo; cited from earlier work

## NCCc1c[nH]cn1 [histamine]
convulsions
  protection from convulsions: tend to protect rodents from convulsions

## S=C(NC1CCCCC1)N1CCC(c2cnc[nH]2)CC1 [thioperamide]
[1]
  effect on electrically-driven convulsions: reduce electrically-driven convulsions
Seizure susceptibility
  effect on seizure susceptibility: failed to affect seizure susceptibility
[2]
  effect on pentetrazole-induced convulsions: prevent pentetrazole-induced convulsions
[3]
  effect on amygdaloid-kindled seizures: ineffective

## CN(C)CCCSC(=N)N [dimaprit]
H3-receptor
  potency of H3-receptor antagonism: only very low potency

## CNCCc1ccccn1 [betahistine]
H3-receptor
  potency of H3-receptor antagonism: only very low potency

## Cc1nc(N)nc(N)c1-c1ccc(Cl)c(Cl)c1 [metoprine]
convulsions
  protection from convulsions: tend to protect rodents from convulsions

## C(=NC12CC3CC(CC(C3)C1)C2)N1CCC(c2cnc[nH]2)CC1.Cl.Cl [AQ0145]
[1]
  effect on electrically-driven convulsions: reduce electrically-driven convulsions
[2]
  effect on pentetrazole-induced convulsions: prevent pentetrazole-induced convulsions

## Clc1ccc(CCCOCCCN2CCCCC2)cc1 [3-(4-chlorophenyl)propyl 3-piperidinopropyl ether]
[4]
  tolerability: perfectly well tolerated
[4]; add-on, in a significant number of patients
  reduction of seizures frequency: 50%
[5]; 10 mg/kg with carbamazepine, sodium valproate, phenyloin, diazepam, Phenobarbital
  modification (enhancement) of anticonvulsive properties of established antiepileptic drugs: did not modify
[5]; 10 mg/kg, mice, pentetrazole
  preventing the convulsion (latency or duration): ineffective
[6]; 40 mg for 1 week
  EEG response after repeated dosing: enhancement of the response observed on single administration
[6]; 40-120 mg orally, single dose, anterior leads, dose-dependent
  fast EEG activities: significant enhancement of fast activities
[7]; 20 mg, four patients
  suppression of PPR: one patient showed total suppression
[7]; 20 mg, one patient
  duration of total PPR suppression: 6 h
[7]; 40 mg, four patients
  suppression of PPR: one showed partial suppression of PPR and one total suppression of PPR
[7]; 60 mg
  duration of effect: more than 8 hours
  onset of effect post administration: 1 to 2 h
[7]; 60 mg, four patients
  clinical response: clinical response in all four patients
  total suppression of PPR: two patients showed total suppression of PPR
[7]; 60 mg, one patient
  longest duration of effect: up to 36 hours
[7]; add-on to Depakine, Tegretol, Keppra, Lamictal
  tolerability of addition to conventional antiepileptic drugs: well tolerated
[7]; single dose, photosensitive patients
  EEG changes triggered by repetitive photic stimulation: dose-dependently suppressed
[8]; 20 mg/kg i.p., GAERS rats
  diminution of number and duration of spike-and-wave discharges: up to 77%
[8]; 20 mg/kg, 20 min
  spike and wave discharges at 20 min: total suppression
[8]; 20 mg/kg, 1 h
  spike and wave discharges at 1 h: nearly total suppression
[9]; 10 or 20 mg/kg i.p., mice
  frequency of discharges: reduced significantly
  modification of interictal EEG profiles (non specific sedative effect): without any significant modification
[9]; kainate mice
  hippocampal seizures, number and duration: reducing both the number and duration of seizures

## CC[C@@H](C(N)=O)N1CCCC1=O [levetiracetam]
[10]
  effect of antiepileptic drugs on kainate-induced seizures: without significant effects

## CCC1(C)CC(=O)NC1=O (stereo not shown) [ethosuccimide]
[11]
  pharmacological reactivity of the GAERS model: protective

## NC(=O)N1c2ccccc2C=Cc2ccccc21 [carbamazepine]
[10]
  effect of antiepileptic drugs on kainate-induced seizures: without significant effects

## NC(=NCc1ccc(Cl)cc1)SCCCc1cnc[nH]1 [clobenpropit]
[1]
  effect on electrically-driven convulsions: reduce electrically-driven convulsions
[2]
  effect on pentetrazole-induced convulsions: prevent pentetrazole-induced convulsions

## O=C1NC(=O)C(c2ccccc2)(c2ccccc2)N1 [phenyloin]
[10]
  effect of antiepileptic drugs on kainate-induced seizures: without significant effects

## c1ccc(C2(N3CCCCC3)CCCCC2)cc1 [phencyclidine]
H3-receptor
  potency of H3-receptor antagonism: only very low potency

## N[C@@H](Cc1c[nH]cn1)C(=O)O [L-histidine]
convulsions
  protection from convulsions: tend to protect rodents from convulsions
